Experimental data from patent US9594084B2, “Phosphorylation of histones and uses thereof” (H. LEE MOFFITT CANCER CENTER AND RESEARCH INSTITUTE, priority 2012, dated 2017).

Columns and labels:
WEE1 [1] = molecular target: T1, WEE1 (Homo sapiens, UniProt P30291); assay: Peptide Immunosandwich Assay (PIA) with GBM tumor lysates; type: biochemical; details: 100 ug of lysates, 10 uM for 30 minutes
Protocol: Threshold interval is shown.
(§1) In brief, Streptavidin coated 96-well plates (R&D systems) were incubated with biotinylated human histone H2B derived peptides […] (SEQ ID NO: 62, Y37 site is underlined). H2B derived phospho-peptide KRSRKESp[…] (SEQ ID NO: 63) was used as positive control. Any unbound areas on the plate were blocked with 3% BSA. Next, purified WEE1 protein (100 ng) prepared in kinase buffer (20 mM HEPES, 225 mM NaCl, 1% Triton X-100, 10% glycerol, phosphatase and protease inhibitors) supplemented with 1 uM ATP and 1 uM MgCl2. After 2 hours of incubation, plates were washed with phosphate buffered saline containing 0.1% Tween 20 (PBST) and reblocked in 3% BSA. The pY37-H2B or pTyr antibodies (at 1:1000 dilution) were added and incubated for 1 hour. Unbound antibodies were washed and HRP-conjugated anti-mouse secondary antibodies (1:5000) were added. The magnitude of phosphorylation was detected using developer solution (OPD tablets, Sigma) and after 20 minutes of incubation, the plates were read at 450 nm.
To assess the WEE1 epigenetic activity in GBM patients, lysates were prepared from 8 GBM tumor biopsies and 3 normal brain samples as a control. The lysates were quantitated and 100 ug of lysates was used per reaction. Each reaction was performed in triplicates. […]

IDH2 gene transcription = assay: qRT-PCR of IDH2 in cancer cell lines; type: cell-based
Text: (FIG. 42a-42e) RNA was isolated from cells treated with WEE1 inhibitor (or siRNA) followed by qRT-PCR using IDH2 and actin primers.
Total RNA was isolated followed by qRT-PCR with IDH2 and actin specific primers. As control, U118 cell line was used which has low levels of WEE1 (unpublished data).

[2] = test system: pY37-H2B epigenetic marks within IDH2; assay: Directed ChIP-PCR of pY37-H2B marks in IDH2 coding region, synchronized MEFs; type: cell-based, mouse
[3] = test system: pY37-H2B marks within IDH2; assay: ChIP-qPCR of pY37-H2B marks within IDH2 in GBM derived cell lines; type: cell-based, human; details: U87
Text: FIG. 44a-44f show H2B Tyr37-phosphorylation marks are deposited within IDH2.
To validate the role of WEE1 in IDH2 marking, chromatin from GBM derived cell line U87 was immunoprecipitated using the pY37-H2B antibody followed by qPCR. […] Similar data was obtained with another human GBM derived cell lines T98G (FIG. 44E).

[4] = test system: WEE1 expressing cancer cell lines; details: cited from earlier work
WEE1 [5] = molecular target: T1, WEE1; assay: Peptide Immunosandwich Assay (PIA) with purified WEE1; type: biochemical; parameters: GST; purchased Invitrogen; details: purified WEE1 protein (100 ng), 5 uM
Protocol: H2B Tyr37-phosphorylation was determined as described in the text.
as §1
The Peptide Immunosandwich Assay was first validated using purified WEE1 protein (100 ng) and cancer derived cell lines (50 ug). […] PIA was also validated using cancer derived cells lines MDA-MB231 (low WEE1 activity) and LAPC4 cells (high WEE1 activity). […] As negative controls, H2B peptide alone or WEE1 enzyme alone were used. […]

T1 sequence (P30291 whole entry): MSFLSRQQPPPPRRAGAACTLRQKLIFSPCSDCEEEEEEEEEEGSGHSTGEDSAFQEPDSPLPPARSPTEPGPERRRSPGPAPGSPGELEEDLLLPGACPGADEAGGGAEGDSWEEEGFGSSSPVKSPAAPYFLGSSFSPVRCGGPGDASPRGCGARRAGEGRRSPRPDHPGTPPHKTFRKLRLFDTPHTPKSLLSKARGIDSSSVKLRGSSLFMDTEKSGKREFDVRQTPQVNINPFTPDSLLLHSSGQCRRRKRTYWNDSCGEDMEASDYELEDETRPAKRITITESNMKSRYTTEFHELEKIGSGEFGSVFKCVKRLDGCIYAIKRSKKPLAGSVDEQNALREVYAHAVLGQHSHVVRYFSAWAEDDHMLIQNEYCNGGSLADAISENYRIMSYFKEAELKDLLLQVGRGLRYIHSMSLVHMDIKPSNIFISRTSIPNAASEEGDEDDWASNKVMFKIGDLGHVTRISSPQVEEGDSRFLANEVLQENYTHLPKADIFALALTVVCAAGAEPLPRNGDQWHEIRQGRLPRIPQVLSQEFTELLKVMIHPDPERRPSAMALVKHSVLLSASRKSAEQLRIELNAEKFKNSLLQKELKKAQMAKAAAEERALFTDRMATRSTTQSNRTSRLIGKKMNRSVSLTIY

WEE1 activity in GBM tumor lysates (WEE1 [1]): significantly reduced | pY37-H2B levels (WEE1 [5]): significant decrease
Compound: C=CCn1c(=O)c2cnc(Nc3ccc(N4CCN(C)CC4)cc3)nc2n1-c1cccc(C(C)(C)O)n1 [MK-1775]
transcript levels of the IDH2 gene (IDH2 gene transcription; LNCaP (prostate), 1 uM, 24 hours): significant increase | transcript levels of the IDH2 gene (IDH2 gene transcription; U87 (GBM), 1 uM, 24 hours): significant increase | IDH2 mRNA (IDH2 gene transcription; U118 cell line (low levels of WEE1), 1 uM, 24 hours): not increased | transcript levels of the IDH2 gene (IDH2 gene transcription; WM1366 (melanoma), 1 uM, 24 hours): significant increase | IDH2 transcript levels (IDH2 gene transcription; summary statement): increased | deposition of pY37-H2B epigenetic marks in the IDH2 coding region [2]: abolished | pY37-H2B marks within IDH2 [3]: completely erased | apoptosis [4]: selectively induces apoptosis
